{"source": "patent US20250228841A1", "about": "“COMPOSITIONS AFFECTING PIGMENT PRODUCTION AND METHODS FOR TREATMENT OF BACTERIAL DISEASES” (Aptorum Therapeutics Limited, priority 2024, published 2025)", "key": {"[1]": {"test": "Solubility in solutions simulating gastric juice and intestinal fluid", "type": "physicochemical", "from_the_text": "The following table (Table 4) illustrates the solubility of two different compounds, NP16-XL-016 (hereinafter as “IM032”) and NP16-XL-061 (hereinafter as “IM032-C1”), in two solutions with different pH values simulating the pH of gastric juice and human intestinal fluid using HCl and phosphate buffer respectively."}, "MDCK cells": {"system": "MDCK cells", "test": "Cytotoxic activity on MDCK cells", "type": "cell-based"}, "S. aureus COL [2]": {"system": "S. aureus COL", "test": "Murine intraperitoneal infection model, liver and spleen CFU", "type": "in vivo, Staphylococcus aureus", "conditions": "BALB/c mice, i.p. S. aureus COL; 0.35 mg twice per day (days -1, 0, 1 and 2); 72 hours; P<0.01", "method": "(§1) For other S. aureus sub-type, eight-to ten-week-old female BALB/c mice were injected intraperitoneally (i.p) with 4×10^8 CFUs of early stationary phase S. aureus COL. After 3 d, animals were euthanized, the liver and spleen were isolated, homogenized in PBS, and plated on to obtain viable counts. For the treatment study, mice were randomized into two groups at the start of the experiment and administered, i.p., either 0.35 mg of NP16 or PBS with 5% Tween-80 as a control, twice per day, starting on d-1 to d 2 (a total of eight doses for each). Intraperitoneal challenge with 4×10^8 CFUs of early stationary phases S. aureus COL was performed on d 0. The mice were sacrificed on d 3 for enumeration of bacterial CFUs in liver and spleen homogenates."}, "[3]": {"system": "clinical isolate S. aureus strain AE052", "test": "Murine intraperitoneal infection model, kidney CFU", "type": "in vivo, Staphylococcus aureus", "method": "as §1\nFor the clinical isolate S. aureus strain AE052, all operations were similar to those used for the COL strain, except 10^8 CFUs of early stationary phase bacteria were used in the infection model, and kidneys were collected for monitoring bacterial loads. Statistics were performed using the Student's t-test (GraphPad Prism)."}, "S. aureus COL [4]": {"system": "S. aureus COL", "test": "Bactericidal activity of human polymorphonuclear leukocytes (neutrophil killing)", "type": "cell-based, Staphylococcus aureus", "conditions": "NP16-treated S. aureus COL", "method": "The killing of S. aureus by human polymorphonuclear leukocytes (PMNs) was determined as previously described, with some modifications. Briefly, PMNs (10^6) were mixed with ˜10^7 opsonized S. aureus bacteria MOI=10 in 24-well tissue culture plates. After centrifuged at 380 g for 8 min, plates were incubated at 37° C. for up to 1.5 h. PMNs were lysed with saponin (20 min on ice) and plated on BHIA plates. The percent survival was calculated by normalized with time zero. Statistics were performed with the Student's t-test (GraphPad Prism)."}, "[5]": {"system": "non-pigmented strain RN6390", "test": "Hydrogen peroxide susceptibility assay, non-pigmented strain", "type": "cell-based, Staphylococcus aureus", "method": "(§2) S. aureus was grown in BHI with or without NP16 (40 μM). After 2 days, bacteria were washed twice in PBS, diluted to a concentration of 1×10^7 CFUs per 100 μl reaction mixture in a 96-well plate. Hydrogen peroxide (H2O2) in PBS was added to a 440 mM final concentration, and the plate was incubated for 1 hr at 37° C. with shaking. The reaction was stopped by the addition of 1,000 U/ml of exogenous catalase (Sigma-Aldrich, St. Louis, MO), and bacterial viability was assessed by plating dilutions on BHI agar plates."}, "S. aureus COL [6]": {"system": "S. aureus COL", "test": "Hydrogen peroxide susceptibility assay", "type": "cell-based, Staphylococcus aureus", "conditions": "S. aureus COL grown with NP16 (40 μM); 440 mM H2O2, 1 hr", "method": "as §2"}, "[7]": {"system": "MRSA USA 300 ATCC BAA-1717", "test": "Mouse (LD0-20) bacteremia model, bacterial counts in organs", "type": "in vivo, Staphylococcus aureus", "conditions": "BALB/c mice, IV MRSA USA 300 ATCC BAA-1717; IM032 0.3-30 mg/kg PO BID 7 days; Day 7", "method": "A bacterial strain, USA 300 MRSA BAA-1717, was used to infect BALB/c (female). Test animals were intravenously (IV) inoculated with MRSA ATCC BAA-1717 at a target density of 1×10^6 CFU/mouse. Test substance, IM032 at 0, 0.3, 1, 3, 10, and 30 mg/kg, was administered orally (PO) twice daily (BID) for a total of 7 dosing days.\nThe reference agents, vancomycin at 3 mg/kg was administered IV once (QD) at 1 h after infection for 7 consecutive days.\nWith reference to FIG. 9, the animals were IV inoculated with MRSA USA 300 ATCC BAA-1717 at 1.02×10^6 CFU/mouse. IM032 at 0.3, 1, 3, 10, and 30 mg/kg were orally (PO) administrated twice daily (BID) at 1 and 7 h after the infection on Day 1, and then twice daily at 6-hour intervals in the next 6 days for a total of 7 days of dosing. Vancomycin, at 3 mg/kg, was administered intravenously (IV) at 1 h after the infection on Day 1 and then once a day in the next 6 days for a total of 7 days of dosing. All the test animals in the IM032 treatment, reference vancomycin and the vehicle control groups were sacrificed at 168 hours (Day 7) after the infection. […] Statistical significance compared to the respective vehicle control was determined by unpaired student t-tests. […]\nWith reference to FIG. 10, bacterial density in lung and liver were determined. […] Statistical significance compared to the respective vehicle control was determined by unpaired student t-tests. […]"}, "[8]": {"system": "10 different Staphylococcus aureus (S. aureus) strains", "test": "Inhibition of staphyloxanthin production by IM032 in different S. aureus strains (overall)", "type": "cell-based", "conditions": "any concentration of IM032 (up to 4,000 nM)", "method": "Compound IM032 was evaluated for its in vitro efficacy to inhibit staphyloxanthin production in 10 different Staphylococcus aureus (S. aureus) strains, SH1000, HG003, ATCC29213, ATCC700698, COL, JE2, LAC, USA300-3, Newman and ST239III.\nThe test item was dissolved at 44.9 mg/mL in DMSO at 37° C., aliquoted into several tubes, and stored at −20° C. until use. On the day of testing, a stock solution was serially diluted to testing concentrations with DMSO. All solutions were vortexed and mixed with a pipette to achieve homogeneity immediately before dilution. A correction factor for purity was not applied to the test item preparations.\nEach test item solution (6 μL) was combined with 0.6 mL of S. aureus culture in brain heart infusion broth (CFU per well=1×10^7). 12-wells repeats were performed for each concentration in 96-well 2-mL plates. The plates were then incubated in a shaker at 37° C., 250 rpm for 24 hours. […] After centrifugation, 100 μL of supernatant was transferred to a 96-well cell culture plate and OD450 was measured. The relative pigment production at each tested concentration was calculated as follows: […]\nThe IC50 for each test was determined based on the calculated inhibition ratio from above with Prism 6.0 by employing a non-linear regression (four parameters) fitting method with assigned bottom and top at 0.05 and 0.95 respectively. […]"}, "[9]": {"system": "methicillin-resistant S. aureus (MRSA)", "test": "Mouse MRSA skin infection model, wound closure", "type": "in vivo, Staphylococcus aureus", "from_the_text": "Visual wound healing/closure in different treatment groups of mice can be observed in FIG. 11B."}}}
{"smiles": "O=C(/C=C/c1ccccc1Cl)Nc1ccc(S(=O)(=O)N2CCCCC2)cc1", "note": "[IM032-Cl, 3-(6-chlorophenyl)-N-[4-(1-piperidine-1-sulfonyl)phenyl] acrylamide]", "values": [{"measurement": "Solubility in pH 2 (0.1N HCl + 0.1% Tween 80) - simulating human stomach", "setting": "[1]; pH 2", "result": "<LOQ"}]}
{"smiles": "O=C(/C=C/c1ccccc1)Nc1ccc(S(=O)(=O)N2CCCC2)cc1", "note": "[NP16, 3-phenyl-N-[4-(1-pyrrolidinyl-sulfonyl)phenyl]acrylamide]", "values": [{"measurement": "effect on the growth of MDCK cells (cytotoxic activity)", "setting": "MDCK cells", "result": "no effect"}, {"measurement": "bacterial counts in the livers and spleens versus control group", "setting": "S. aureus COL [2]", "result": "significantly lower"}, {"measurement": "mice with kidney bacterial counts below the detection threshold", "setting": "[3]; AE052 infection, n=10, control group 2 of 10", "result": "6 of 10"}, {"measurement": "bacterial counts in the kidneys versus control group", "setting": "[3]; mice infected with AE052, 0.35 mg twice per day, P<0.001", "result": "significantly lower"}, {"measurement": "susceptibility to killing by neutrophils", "setting": "S. aureus COL [4]", "result": "increased susceptibility"}, {"measurement": "susceptibility to hydrogen peroxide killing irrespective of treatment", "setting": "[5]", "result": "similar"}, {"measurement": "susceptibility to killing by hydrogen peroxide", "setting": "S. aureus COL [6]", "result": "increased susceptibility"}]}
{"smiles": "O=C(/C=C/c1ccccc1Br)Nc1ccc(S(=O)(=O)N2CCCCC2)cc1", "note": "[NP16-XL-016, 3-(6-bromophenyl)-N-[4-(1-piperidine-1-sulfonyl)phenyl] acrylamide]", "values": [{"measurement": "bacteria count across major organs", "setting": "[7]", "result": "statistically significant reduction"}, {"measurement": "solubility in two biorelevant media relative to IM032-C1", "setting": "[1]; pH 2 and pH 7.4, fold higher than IM032-C1", "result": "> 20", "unit": "×"}, {"measurement": "bactericidal effect (reduction in optical density)", "setting": "[8]", "result": "not observed"}, {"measurement": "wound healing compared with 2% Mupirocin and Linezolid", "setting": "[9]; oral 30 mg/kg twice a day", "result": "statistically significant improvement"}, {"measurement": "visual wound healing (observed size of the closure) among the three groups", "setting": "[9]; oral BID for 7 days, FIG. 11B", "result": "best visual wound healing"}]}
